Data as given in patent US8158792B2, “Spiropiperidines for use as tryptase inhibitors” (Janssen Pharmaceutica N.V., priority 2007, dated 2012).

Molecular target: human lung tryptase
Assay: β-Tryptase In-Vitro Enzyme Assay
Assay type: biochemical
Settings: human lung tryptase 1 nM, substrate H-D-HHT-Ala-Arg-pNa 500 μM, pH 7.4, room temperature
Description: The β-tryptase assay was conducted with human lung tryptase (Cortex Biochem #CP3033) in an aqueous buffer (10 mM Tris, 10 mM Hepes, 150 mM NaCl, 0.1% PEG 8000, pH 7.4) using the chromogenic substrate H-D-HHT-Ala-Arg-pNa. […] Percent inhibition was calculated by comparing the initial reaction velocity of samples without inhibitor to those with inhibitor. The initial reaction velocities were analyzed using Microsoft Excel.

| SMILES | IC50 |
| --- | --- |
| Cc1occc1C(=O)NCc1ccc(C(=O)N2CCC3(CC2)COc2ccc(CN)cc23)o1 [Cpd 220, 1-[5-(2-methyl-furan-3-yl-carbonylaminomethyl)-furan-2-yl]carbonyl-5′-aminomethyl-spiro[piperidine-4,3′-(2H)-benzo[b]furan]] | 0.69 µM |
| Cc1ccccc1/C=C/C(=O)N1CCC2(CC1)COc1ccc(CN)cc12 [Cpd 191, (E)-1-(2-methyl-phenylethenyl)carbonyl-5′-aminomethyl-spiro[piperidine-4,3′-(2H)-benzo[b]furan]] | 0.25 µM |
| NCc1ccc2c(c1)C1(CCN(C(=O)c3ccc(Cl)c(Cl)c3)CC1)CO2 [Cpd 1, 1-(3,4-dichlorophenyl)carbonyl-5′-aminomethyl-spiro[piperidine-4,3′-(2H)-benzo[b]furan]] | 0.031 µM |
| NCc1ccc2c(c1)C1(CCN(C(=O)/C=C/c3ccccc3)CC1)CO2 [Cpd 112, (E)-1-(phenylethenyl)carbonyl-5′-aminomethyl-spiro[piperidine-4,3′-(2H)-benzo[b]furan]] | 0.18 µM |
| NCc1ccc2c(c1)C1(CCN(C(=O)Cc3ccc(F)cc3)CC1)CO2 [Cpd 90, 1-(4-fluoro-benzyl)carbonyl-5′-aminomethyl-spiro[piperidine-4,3′-(2H)-benzo[b]furan]] | 0.98 µM |
| NCc1ccc2c(c1)C1(CCN(C(=O)c3ccc(C#Cc4ccccc4)o3)CC1)CN2 [Cpd 319, 1-(5-phenylethynyl-furan-2-yl)carbonyl-5′-aminomethyl-spiro[piperidine-4,3′-(2H)-indole]] | 0.026 µM |
| NCc1ccc2c(c1)C1(CCN(C(=O)/C=C/c3ccccc3)CC1)CO2 [Cpd 109, (E)-1-(phenylethenyl)carbonyl-5′-aminomethyl-spiro[piperidine-4,3′-(2H)-benzo[b]furan]] | 0.21 µM |
| CSc1sc(C(=O)N2CCC3(CC2)COc2ccc(CN)cc23)c(-c2ccc(Cl)cc2)c1C#N [Cpd 202, 1-[3-(4-chloro-phenyl)-4-cyano-5-methylthio-thien-2-yl]carbonyl-5′-aminomethyl-spiro[piperidine-4,3′-(2H)-benzo[b]furan]] | 0.051 µM |
| Cc1ccc(C(=O)N2CCC3(CC2)COc2ccc(CN)cc23)cc1C [Cpd 24, 1-(3,4-dimethyl-phenyl)carbonyl-5′-aminomethyl-spiro[piperidine-4,3′-(2H)-benzo[b]furan]] | 0.15 µM |
| COc1ccc(CN2C(=O)c3ccc(CN)cc3C23CCN(C(=O)c2ccc(C#Cc4ccccc4)o2)CC3)c(OC)c1 [Cpd 316, 1-(5-phenylethynyl-furan-2-yl)carbonyl-1′-oxo-2′-(2,4-dimethoxy-benzyl)-5′-aminomethyl-spiro[piperidine-4,3′-1H-isoindole]] | 0.074 µM |
| Cc1c(C(=O)N2CCC3(CC2)COc2ccc(CN)cc23)oc2c1C(=O)CC(c1ccccc1)C2 (stereo not shown) [Cpd 222, 1-(3-methyl-4-oxo-6-phenyl-5,6,7-trihydro-4H-benzo[b]furan-2-yl)carbonyl-5′-aminomethyl-spiro[piperidine-4,3′-(2H)-benzo[b]furan]] | 0.26 µM |
| NCc1ccc2c(c1)C1(CCN(C(=O)CCc3ccc4c(c3)OCO4)CC1)CO2 [Cpd 104, 1-(benzodioxol-5-ylethyl)carbonyl-5′-aminomethyl-spiro[piperidine-4,3′-(2H)-benzo[b]furan]] | 4.5 µM |
| COc1cccc(CC(=O)N2CCC3(CC2)COc2ccc(CN)cc23)c1 [Cpd 99, 1-(3-methoxy-benzyl)carbonyl-5′-aminomethyl-spiro[piperidine-4,3′-(2H)-benzo[b]furan]] | 0.58 µM |
| CCCOc1sc(C(=O)N2CCC3(CC2)COc2ccc(CN)cc23)c(C)c1Br [Cpd 303, 1-(3-methyl-4-bromo-5-propoxy-thien-2-yl)carbonyl-5′-aminomethyl-spiro[piperidine-4,3′-(2H)-benzo[b]furan]] | 0.0037 µM |
| NCc1ccc2c(c1)C1(CCN(C(=O)/C=C/c3ccc(F)c(F)c3)CC1)CO2 [Cpd 111, (E)-1-(3,4-difluoro-phenylethenyl)carbonyl-5′-aminomethyl-spiro[piperidine-4,3′-(2H)-benzo[b]furan]] | 0.19 µM |
| NCc1ccc2c(c1)C1(CCN(C(=O)c3ccc(Oc4cc(C(F)(F)F)cc(C(F)(F)F)c4)cc3)CC1)CO2 [Cpd 279, 1-[4-(3,5-bis-trifluoromethyl-phenoxy)-phenyl]carbonyl-5′-aminomethyl-spiro[piperidine-4,3′-(2H)-benzo[b]furan]] | 8 µM |
| NCc1ccc2c(c1)C1(CCN(C(=O)CCc3ccccc3)CC1)CO2 [Cpd 79, 1-phenethylcarbonyl-5′-aminomethyl-spiro[piperidine-4,3′-(2H)-benzo[b]furan]] | 1.4 µM |
| CSc1sc(C(=O)N2CCC3(CC2)COc2ccc(CN)cc23)c2c1C(=O)CCC2 [Cpd 155, 1-(3-methylthio-4-oxo-5,6,7-trihydro-4H-benzo[c]thien-1-yl)carbonyl-5′-aminomethyl-spiro[piperidine-4,3′-(2H)-benzo[b]furan]] | 0.012 µM |

The remaining compounds from weak to strong by IC50, led by results:

| IC50 | SMILES |
| --- | --- |
| 5.8 µM | COc1ccccc1/C=C\C(=O)N1CCC2(CC1)COc1ccc(CN)cc12 [Cpd 183, (Z)-1-(2-methoxy-phenylethenyl)carbonyl-5′-aminomethyl-spiro[piperidine-4,3′-(2H)-benzo[b]furan]] |
| 4.3 µM | NCc1ccc2c(c1)C1(CCN(C(=O)CCc3cccc(Cl)c3)CC1)CO2 [Cpd 83, 1-(3-chloro-phenethyl)carbonyl-5′-aminomethyl-spiro[piperidine-4,3′-(2H)-benzo[b]furan]] |
| 3.7 µM | Cc1nc2cc(C(=O)N3CCC4(CC3)COc3ccc(CN)cc34)ccc2n1-c1ccccc1 [Cpd 14, 1-(1-phenyl-2-methyl-benzoimidazol-5-yl)carbonyl-5′-aminomethyl-spiro[piperidine-4,3′-(2H)-benzo[b]furan]] |
| 3.2 µM | Cc1c(C#N)sc2sc(C(=O)N3CCC4(CC3)COc3ccc(CN)cc34)c(C)c12 [Cpd 226, 1-(3,4-dimethyl-5-cyano-thieno[2,3-b]thien-2-yl)carbonyl-5′-aminomethyl-spiro[piperidine-4,3′-(2H)-benzo[b]furan]] |
| 2.9 µM | CC(C)(C)c1ccc(/C=C/C(=O)N2CCC3(CC2)COc2ccc(CN)cc23)cc1 [Cpd 268, (E)-1-(4-tert-butyl-phenylethenyl)carbonyl-5′-aminomethyl-spiro[piperidine-4,3′-(2H)-benzo[b]furan]] |
| 2.7 µM | NCc1ccc2c(c1)C1(CCN(C(=O)Cc3cccc(F)c3)CC1)CO2 [Cpd 80, 1-(3-fluoro-benzyl)carbonyl-5′-aminomethyl-spiro[piperidine-4,3′-(2H)-benzo[b]furan]] |
| 1 µM | NCc1ccc2c(c1)C1(CCN(C(=O)c3cccc4c3Cc3ccccc3-4)CC1)CO2 [Cpd 269, 1-fluoren-1-ylcarbonyl-5′-aminomethyl-spiro[piperidine-4,3′-(2H)-benzo[b]furan]] |
| 0.82 µM | NCc1ccc2c(c1)C1(CCN(C(=O)c3ccccc3)CC1)CO2 [Cpd 36, 1-phenylcarbonyl-5′-aminomethyl-spiro[piperidine-4,3′-(2H)-benzo[b]furan]] |
| 0.65 µM | C[C@H]1CC[C@H](C(=O)N2CCC3(CC2)COc2ccc(CN)cc23)CC1 [Cpd 38, 1-(trans-4-methyl-cyclohexyl)carbonyl-5′-aminomethyl-spiro[piperidine-4,3′-(2H)-benzo[b]furan]] |
| 0.48 µM | NCc1ccc2c(c1)C1(CCN(C(=O)[C@@H]3C[C@H]3c3ccccc3)CC1)CO2 (relative stereo) [Cpd 141, 1-(trans-2-phenyl-cyclopropyl)carbonyl-5′-aminomethyl-spiro[piperidine-4,3′-(2H)-benzo[b]furan]] |
| 0.43 µM | NCc1ccc2c(c1)C1(CCN(C(=O)CC(c3ccccc3)c3ccccc3)CC1)CO2 [Cpd 354, 1-(2,2-diphenylethyl)carbonyl-5′-aminomethyl-spiro[piperidine-4,3′-(2H)-benzo[b]furan]] |
| 0.28 µM | C=CCc1ccc(OCc2ccc(C(=O)N3CCC4(CC3)COc3ccc(CN)cc34)o2)c(OC)c1 [Cpd 224, 1-[5-(2-methoxy-4-allyl-phenoxymethyl)-furan-2-yl]carbonyl-5′-aminomethyl-spiro[piperidine-4,3′-(2H)-benzo[b]furan]] |
| 0.28 µM | NCc1ccc2c(c1)C1(CCN(C(=O)c3cc(-c4ccc(Cl)cc4)cs3)CC1)CO2 [Cpd 357, 1-[4-(4-chloro-phenyl)-thien-2-yl]carbonyl-5′-aminomethyl-spiro[piperidine-4,3′-(2H)-benzo[b]furan]] |
| 0.25 µM | NCc1ccc2c(c1)C1(CCN(C(=O)c3ccc(F)cc3)CC1)CO2 [Cpd 43, 1-(4-fluoro-phenyl)carbonyl-5′-aminomethyl-spiro[piperidine-4,3′-(2H)-benzo[b]furan]] |
| 0.15 µM | COc1ccccc1/C=C/C(=O)N1CCC2(CC1)COc1ccc(CN)cc12 [Cpd 194, (E)-1-(2-methoxy-phenylethenyl)carbonyl-5′-aminomethyl-spiro[piperidine-4,3′-(2H)-benzo[b]furan]] |
| 0.053 µM | NCc1ccc2c(c1)C1(CCN(C(=O)/C=C/c3cccc(F)c3)CC1)CO2 [Cpd 161, (E)-1-(3-fluoro-phenylethenyl)carbonyl-5′-aminomethyl-spiro[piperidine-4,3′-(2H)-benzo[b]furan]] |
| 0.048 µM | NCc1ccc2c(c1)C1(CCN(C(=O)c3cc4c(F)cccc4s3)CC1)CO2 [Cpd 168, 1-(4-fluoro-benzo[b]thien-2-yl)carbonyl-5′-aminomethyl-spiro[piperidine-4,3′-(2H)-benzo[b]furan]] |
| 0.021 µM | CCSc1sc(C(=O)N2CCC3(CC2)COc2ccc(CN)cc23)c2c1C(=O)CC(C)(C)C2 [Cpd 223, 1-(3-ethylthio-4-oxo-6,6-dimethyl-6,7-dihydro-5H-benzo[c]thien-1-yl)carbonyl-5′-aminomethyl-spiro[piperidine-4,3′-(2H)-benzo[b]furan]] |
| 0.0095 µM | CSc1sc(C(=O)N2CCC3(CC2)COc2ccc(CN)cc23)c2ccccc12 [Cpd 234, 1-(3-methylthio-benzo[c]thien-1-yl)carbonyl-5′-aminomethyl-spiro[piperidine-4,3′-(2H)-benzo[b]furan]] |
